The results in this text go back to patent publication US9808443B1, “Cyclooxygenase inhibitors” (KING SAUD UNIVERSITY, priority 2016, dated 2017).

Series [1] deals with carrageenan-induced rat paw edema. Kind of series: carrageenan-induced rat paw edema method (anti-inflammatory activity). Type of series: in vivo. The conditions noted are these: for anti-inflammatory activity (in words): compared with standard drug indomethacin; for anti-inflammatory activity, % inhibition of paw edema: equimolar oral dose, rat. The method, then:
For the experimental results described below, healthy male albino rats (200 g-220 g) were used for the study. The animals were kept in standard plastic animal cages in groups of six animals each with 12 hour light and dark cycle at 25±2° C. The rats were fed on standard rat chow and provided water ad libitum. The animals were acclimatized to laboratory conditions for a week prior to experiments. Anti-inflammatory activity of the synthesized compounds S1-S18 was determined by the carrageenan-induced rat paw edema method. The compounds were tested at equimolar oral dose and were compared with the standard drug indomethacin. […]. Three compounds, namely S14, S7 and S3 containing R=2,4,5-trimethoxyphenyl; […].
Anti-inflammatory activity was determined by a carrageenan-induced rat paw edema method. Male rats weighing 200 g were housed in a room with a controlled temperature and 12 hour light/12 hour dark cycle, housed in a specific pathogen free environment, and fed standard rodent chow and given water ad libitum. Each treatment group and vehicle group consisted of six randomly assigned animals. Compounds were administered p.o. suspension. Paw edema was induced by intradermal injection of 50 μL of 1% carrageenan into the sub plantar region of the right hind paw, after one hour of compound administration. […] The control group received only the vehicle. Increase in paw edema was compared with that in the control group and percent inhibition was calculated taking the values in the control group as 0% inhibition.
In general terms: Carrageenan injected into the paw causes an acute inflammation.

The test system of series [2] is nociceptive response on hot plate. Kind of series: hot plate test (analgesic activity). It is filed as in vivo. More on the design: concentration or dose not given beside the values. The conditions noted are these: hot plate 58° C.; mice; 120 min after injection. On the procedure: Male albino Swiss mice (25 g body weight) were divided into various groups (n=6). Each mouse was initially placed on a hot plate thermostatically maintained at 58° C. […] This time was considered as the control reaction time. A cut-off time of 60 s was used to avoid damage to the paws. To test the analgesic activity of the compounds, each group of mice was treated with one dose of the test compounds. The reaction time was then retested at 0 hour and 120 min after injection (each animal acted as its own control). The percentage changes in the reaction were then calculated.

The test system of a further series is gastric mucosa. The conditions noted are these: rat, in vivo.
The subject of series [3] is ethanol-induced gastric ulcer. Put plainly: ethanol induced ulcer model (gastro-protective activity: ulcer index, mucus, PAS staining, histology). It is filed as in vivo, rat. The conditions noted are these: for Ulcer index Mean ± SEM: pretreatment orally (S3 25.6 mg/kg, indomethacin 25 mg/kg) 1 hour before ethanol 95% 20 mL/kg, rats. An excerpt:
Gastric mucus plays crucial role in gastro-protection. […] The mucus was formed from mucin-type glycoprotein. The mucus gel adhering to the gastric mucosal surface defends the epithelium beneath against acid, pepsin and necrotizing agents, such as ethanol and indomethacin. […] Gastric wall mucus coating might be relieved in the repair of the damaged gastric epithelium. […] The rats were grouped into five groups (n=6). Group I and II received saline solution and served as negative-control and ulcer-control, respectively. […] The animals were sacrificed 1 hour later under anesthesia and their stomachs were quickly removed for further studies. Periodic acid-Schiff (PAS) staining was used to observe the glycogen level in control and pretreated animals. […] Ethanol-induced gastric ulcers result from several mechanisms, including reduction of gastric mucus and impaired mucosal permeability, and leads to increased leakage of hydrogen ions from the lumen and decreased transluminal membrane potential difference. With regard to the gross gastric lesion evaluation, the stomach of each rat was opened along the greater arc and washed with saline water to remove gastric contents. Gastric ulcers appear as elongated bands on the gastric mucosa with hemorrhagic lesions being parallel to the long axis of the stomach. The mucosa was assessed for damage under dissecting microscope (1.8×) and a planimeter was used to measure the ulcers area (hemorrhagic lesions). The length and width of each lesion were measured and the sum of the area of all lesions for each stomach was expressed as the ulcer area (mm^2). To determine mucus production of the gastric mucosa, the gastric mucosa of each rat was gently scraped using a glass slide and the mucus obtained was weighed using a precision electronic balance. For the histologic studies, gastric tissues were collected and fixed in 10% formalin after sacrifice. Then, each sample was embedded in paraffin and cut into 5 μm thick slices for morphological and pathological evaluation. Tissue sections were stained with hematoxylin and eosin (H & E) and examined under a light microscope.

The next series deals with COX-1. Put plainly: Western blot of COX-1 expression in rat gastric mucosa damaged by ethanol. It is filed as in vivo. The conditions noted are these: ethanol induced model, S3 25.6 mg/kg, indomethacin 25 mg/kg. (In general: In western blotting, separated proteins are transferred to a membrane and probed.)

In general, melting point refers to the temperature, or range, at which the solid turns liquid.

`COc1ccc2[nH]c(C)c(CC(=O)N/N=C/c3ccccc3[N+](=O)[O-])c2c1` [Compound S4, 2-(5-methoxy-2-methyl-1H-indol-3-yl)-N′-[(E)-(2-nitrophenyl)methylidene] acetohydrazide] came in with a melting point of 210 to 212 °C. `COc1ccc2[nH]c(C)c(CC(=O)N/N=C/c3ccc(Cl)cc3)c2c1` [Compound S5, N′-[(E)-(4-chlorophenyl)methylidene]-2-(5-methoxy-2-methyl-1H-indol-3-yl)acetohydrazide] had a melting point of 180 to 182 °C. On the same count and under the same terms, under `COc1ccc2[nH]c(C)c(CC(=O)N/N=C/c3ccc(Cl)cc3Cl)c2c1` [Compound S6, N′-[(E)-(2,4-dichlorophenyl)methylidene]-2-(5-methoxy-2-methyl-1H-indol-3-yl)acetohydrazide] stands 238 to 240 °C. `COc1ccc2[nH]c(C)c(CC(=O)N/N=C/c3ccc(OC)c(OC)c3)c2c1` [Compound S7, 2-(5-methoxy-2-methyl-1H-indol-3-yl)-N′-[(E)-(3,4-dimethoxyphenyl)methylidene] acetohydrazide] came in with a melting point of 210 to 212 °C. Besides, in series [1], the “anti-inflammatory activity (in words)” value is given as “most potent compounds with significant anti-inflammatory activity”. In series [2], the “analgesic activity (percentage change in reaction time)” value is listed as 47.72%. Moreover, the “ulcerogenic activity (in words)” value in the series with gastric mucosa is on record as “less ulcerogenic than the reference drug indomethacin”.

Compound `COc1ccc2[nH]c(C)c(CC(=O)N/N=C/c3ccccc3OC)c2c1` [Compound S8, 2-(5-methoxy-2-methyl-1H-indol-3-yl)-N′-[(E)-(2-methoxyphenyl)methylidene] acetohydrazide] yielded a melting point of 220 to 222 °C. For the compound `COc1ccc2[nH]c(C)c(CC(=O)N/N=C/c3ccc(O)cc3)c2c1` [Compound S9, N-[(E)-(4-hydroxyphenyl)methylidene]-2-(5-methoxy-2-methyl-1H-indol-3-yl)acetohydrazide], the “analgesic activity (percentage change in reaction time)” value in series [2] was determined as 55.81%. On to `COc1ccc2[nH]c(C)c(CC(=O)N/N=C/c3cccc(O)c3)c2c1` [Compound S10, N′-[(E)-(3-hydroxyphenyl)methylidene]-2-(5-methoxy-2-methyl-1H-indol-3-yl)acetohydrazide], for which the melting point is 145 to 147 °C. Moreover, the “analgesic activity (percentage change in reaction time)” value in series [2] was 62.50%. `COc1ccc2[nH]c(C)c(CC(=O)N/N=C/c3ccc(N(C)C)cc3)c2c1` [Compound S11, 2-(5-methoxy-2-methyl-1H-indol-3-yl)-N′-{(E)-[4-(dimethylamino)phenyl]methylidene}acetohydrazide] displayed a melting point of 200 to 202 °C. Still for that read-out and setting: with `COc1cccc(/C=N/NC(=O)Cc2c(C)[nH]c3ccc(OC)cc23)c1` [Compound S12, 2-(5-methoxy-2-methyl-1H-indol-3-yl)-N′-[(E)-(3-methoxyphenyl)methylidene] acetohydrazide] the figure was 195 to 197 °C. On to `CCOc1ccc(/C=N/NC(=O)Cc2c(C)[nH]c3ccc(OC)cc23)cc1` [Compound S13, N′-[(E)-(4-ethoxyphenyl)methylidene]-2-(5-methoxy-2-methyl-1H-indol-3-yl)acetohydrazide], for which the melting point was in the range of 213 to 215 °C. In turn, `COc1ccc2[nH]c(C)c(CC(=O)N/N=C/c3cc(OC)c(OC)cc3OC)c2c1` [Compound S14, 2-(5-methoxy-2-methyl-1H-indol-3-yl)-N′-[(E)-(2,4,5-trimethoxyphenyl)methylidene]acetohydrazide] returned a melting point of 238 to 240 °C. For the same compound, in series [1], the “anti-inflammatory activity (in words)” value is “most potent compounds with significant anti-inflammatory activity”. Moreover, in series [2], the “analgesic activity (percentage change in reaction time)” value is 70.27%. Further, in the series on gastric mucosa, the “ulcerogenic activity (in words)” value is listed as “less ulcerogenic than the reference drug indomethacin”.

For the compound `COc1ccc2[nH]c(C)c(CC(=O)N/N=C/c3ccc(OC)c(OC)c3OC)c2c1` [Compound S15, 2-(5-methoxy-2-methyl-1H-indol-3-yl)-N′-[(E)-(2,3,4-trimethoxyphenyl)methylidene]acetohydrazide], the melting point fell in the range of 250 to 252 °C. As for `COc1ccc2[nH]c(C)c(CC(=O)N/N=C/c3cc(OC)c(OC)c(OC)c3)c2c1` [Compound S16, 2-(5-methoxy-2-methyl-1H-indol-3-yl)-N′-[(E)-(3,4,5-trimethoxyphenyl)methylidene]acetohydrazide], the melting point lay within 233 to 235 °C. `COc1cc(OC)c(/C=N/NC(=O)Cc2c(C)[nH]c3ccc(OC)cc23)c(OC)c1` [Compound S17, 2-(5-methoxy-2-methyl-1H-indol-3-yl)-N′-[(E)-(2,4,6-trimethoxyphenyl)methylidene]acetohydrazide]: the melting point was in the range of 230 to 232 °C. Besides, the “analgesic activity (percentage change in reaction time)” value in series [2] was determined as 61.53%. For `COc1ccc(/C=N/NC(=O)Cc2c(C)[nH]c3ccc(OC)cc23)c(OC)c1` [Compound S18, 2-(5-methoxy-2-methyl-1H-indol-3-yl)-N′-[(E)-(2,4-dimethoxyphenyl)methylidene]acetohydrazide], the melting point lay in the range of 170 to 172 °C. On to `COc1ccc2c(c1)c(CC(=O)O)c(C)n2C(=O)c1ccc(Cl)cc1` [indomethacin, reference compound], for which the “anti-inflammatory activity, % inhibition of paw edema” value in series [1] (after 2 hours) is 77.23%; in series [1] (after 4 hours), 76.89%. Further, in series [3] (S3 25.6 mg/kg, indomethacin 25 mg/kg, ethanol induced ulcer), the “histology of gastric tissue (in words)” value is “severe ulceration in comparison with the ethanol induced ulceration”. In addition, in series [3] (pretreated rats, ethanol induced ulcer), the “PAS staining of gastric mucosa (in words)” value is reported as “did not exhibit this magenta staining color of PAS”. The “Ulcer index Mean ± SEM” value in series [3] was 12.34±0.73 mm^2; in series [3] (listed as Indomethacin) it was 12.34 ± 0.73 mm^2. In addition, the “COX-1 expression / inhibition by Western blot (in words)” value in the series with COX-1 is reported as “potent COX-1 inhibitor”.
